From ChEMBL document CHEMBL2321754, “Novel small molecule protein arginine deiminase 4 (PAD4) inhibitors” (Bioorg Med Chem Lett, 2013)

Experiments:
Carbonic anhydrase 9 = Carbonic anhydrase 9 (Homo sapiens, UniProt Q16790)
Description: Inhibition of human CA9 by stopped-flow assay

Carbonic anhydrase 12 = Carbonic anhydrase 12 (Homo sapiens, UniProt O43570); experiment: Inhibition of human CA12 by stopped-flow assay
Carbonic anhydrase 2 = Carbonic anhydrase 2 (Homo sapiens, UniProt P00918); experiment: Inhibition of human CA2 by stopped-flow assay
Carbonic anhydrase 1 = Carbonic anhydrase 1 (Homo sapiens, UniProt P00915); experiment: Inhibition of human CA1 by stopped-flow assay
Carbonic anhydrase 1, sequence (P00915 whole entry): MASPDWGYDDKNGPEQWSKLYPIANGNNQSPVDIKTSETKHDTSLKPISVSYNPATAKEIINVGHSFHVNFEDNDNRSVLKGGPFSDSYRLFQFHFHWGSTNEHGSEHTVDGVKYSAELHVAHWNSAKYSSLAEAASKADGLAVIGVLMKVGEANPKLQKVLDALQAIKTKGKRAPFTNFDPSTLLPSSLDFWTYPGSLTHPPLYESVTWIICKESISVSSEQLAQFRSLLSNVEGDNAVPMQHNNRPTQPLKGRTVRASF

Carbonic anhydrase 12, sequence (O43570 whole entry): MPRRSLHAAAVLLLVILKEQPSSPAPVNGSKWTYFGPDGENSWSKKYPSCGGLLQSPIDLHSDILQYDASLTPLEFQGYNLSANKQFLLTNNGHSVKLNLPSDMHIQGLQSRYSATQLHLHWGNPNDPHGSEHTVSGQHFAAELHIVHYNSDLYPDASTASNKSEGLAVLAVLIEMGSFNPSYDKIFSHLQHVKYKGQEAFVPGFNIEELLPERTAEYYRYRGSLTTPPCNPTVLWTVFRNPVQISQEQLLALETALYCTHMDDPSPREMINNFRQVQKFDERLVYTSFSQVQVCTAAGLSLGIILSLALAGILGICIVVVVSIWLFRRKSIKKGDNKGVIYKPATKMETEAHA

| Ki (Carbonic anhydrase 9) [µM] | Ki (Carbonic anhydrase 12) [µM] | Ki (Carbonic anhydrase 2) [µM] | Ki (Carbonic anhydrase 1) [µM] | SMILES |
| --- | --- | --- | --- | --- |
| 2.56 | 0.48 | 1.15 | 0.63 | N=C(N)Nc1ccc(C(=O)O)cc1 [4-GUANIDINO-BENZOIC ACID] |
| 4.13 | 14.6 | 7.51 | 8.34 | N=C(N)Nc1ccc(O)cc1 |

| SMILES | Ki (Carbonic anhydrase 9) [µM] | Ki (Carbonic anhydrase 12) [µM] | Ki (Carbonic anhydrase 2) [µM] | Ki (Carbonic anhydrase 1) [µM] |
| --- | --- | --- | --- | --- |
| N=C(N)NCCc1ccc(S(N)(=O)=O)cc1 | 0.034 | 0.014 | 0.089 | 0.24 |
